The subject of this assay is fire ants. The experiment in a line: fire ant kill test in insecticide-coated mason jar (time to death of entire population). Conditions: Table 1. Type of assay: in vivo. As to the method: In this example a series of commercially available insecticides were tested at various dilution levels and with and without a preferred copolymer, namely the AVAIL® copolymer previously described (a 40%-60% w/w aqueous composition of a saturated sodium salt of a maleic anhydride/itaconic acid copolymer in water). In each set of test runs, the selected insecticide was tested with a population of fire ants in order to determine the time required to kill the entire population.
In particular, in each test run 20 ml of the respective liquid insecticide composition was added to a mason jar and swirled around the inside bottom thereof. The liquid was then poured off and the remainder was allowed to dry on the inner jar surface, creating substantially a monomeric dried layer. The outside neck surface of the jar was then coated in talc, and the open end of the jar was placed into a fire ant nest. The talc coating prevented the aggressive fire ants from climbing the outer surface of the jar. A population of fire ants was thus established in each jar, and the jar was then topped with an apertured mason jar cap. The time to death of all of the fire ants was then recorded.
In each case, the recommended concentration of insecticide was prepared (recorded as “1X”), followed by dilutions with water to create the diluted compositions. Where copolymer was used, the copolymer was added to the insecticide with gentle mixing, at a level of 30 ml per gallon. If desired, lesser amounts of copolymer could be used, e.g., 20 ml per gallon.
In another series of tests, insecticides were tested with various copolymers having different ratios of maleic anhydride and itaconic acid moieties, and at different pH levels. In particular, respective copolymeric compositions were prepared made up of polymaleic acid, a 1:3 weight ratio of maleic anhydride to itaconic acid, a 1:1 weight ratio of maleic anhydride to itaconic acid, a 3:1 weight ratio of maleic anhydride to itaconic acid, and a 7:1 weight ratio of maleic anhydride to itaconic acid. […]

The mark [1] stands for this setting: insecticide at 1X (recommended concentration), time to death of all fire ants.

With `CCOC(=O)CC(SP(=S)(OC)OC)C(=O)OCC` (stereo not drawn) [malathion, 2-(dimethoxyphosphinothioylthio) butanedioic acid diethyl ester], under setting [1], the “TIME TO DEATH” value turned out to be 1 min. For `CC1(C)C(C=C(Cl)Cl)C1C(=O)OCc1cccc(Oc2ccccc2)c1` (stereo not drawn) [permethrin, (3-phenoxyphenyl)methyl 3-(2,2-dichloroethenyl)-2,2-dimethyl-cyclopropane-1-carboxylate], the “TIME TO DEATH” value is, setting by setting: (insecticide at 1/3X dilution) 5 min; under setting [1], 5 min.
